In publication PMC5653858, “A single extracellular amino acid in Free Fatty Acid Receptor 2 defines antagonist species selectivity and G protein selection bias” (Scientific Reports, 2017):
Positions count from the first letter of the chain named.

How the values were obtained:
Lys^65Arg hFFA2 [1] = target: T1, Lys^65Arg hFFA2 (Homo sapiens, UniProt O15552, K65R); parameters: method as in PMID 26991104; details: not compatible with current results; cited from earlier work
T1 construct: NanoLuc Luciferase (N); eYFP; expressed in transfected cells; host or cells: Flp-In T-REx HEK293, doxycycline-induced
T1 sequence (O15552 1-330 K65R): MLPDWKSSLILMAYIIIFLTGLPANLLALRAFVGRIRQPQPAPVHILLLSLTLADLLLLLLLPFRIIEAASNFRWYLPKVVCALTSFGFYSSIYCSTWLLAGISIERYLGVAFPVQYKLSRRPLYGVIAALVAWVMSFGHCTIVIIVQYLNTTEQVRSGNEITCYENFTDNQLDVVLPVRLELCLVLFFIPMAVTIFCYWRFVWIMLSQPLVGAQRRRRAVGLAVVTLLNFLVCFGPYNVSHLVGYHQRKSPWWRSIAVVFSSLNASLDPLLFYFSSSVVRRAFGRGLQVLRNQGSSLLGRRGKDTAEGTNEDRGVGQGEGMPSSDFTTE

Lys^65Arg hFFA2 [2] = target: T1, Lys^65Arg hFFA2; assay: inositol monophosphate accumulation assay, Lys65Arg hFFA2; assay type: cell-based
Procedure: (§1) All cAMP and inositol monophosphate experiments were performed using Flp-In T-REx HEK293 cells induced to express the receptor of interest. Experiments were carried out using respective homogenous time-resolved FRET-based detection kits (CisBio Bioassays; CisBio, Codolet, France) according to the manufacturer’s protocol. For the cAMP inhibition assay cells were plated at 2000 cells/well in low-volume 384-well plates. The ability of agonists to inhibit 1 μM forskolin-induced cAMP production was assessed following a co-incubation for 30 min with agonist compounds. For the inositol monophosphate accumulation assay cells were plated at 7500 cells/well in low-volume 384-well plates and incubated for 2 h at 37 °C with test compounds. To assess ability of antagonists to inhibit agonist responses, cells were pre-incubated with antagonist compounds for 30 min at 37 °C prior to addition of an EC80 concentration of agonist. Respective reactions were stopped according to the manufacturer’s instructions and the output was measured by with a PHERAstar FS plate reader (BMGLabtech, Aylesbury, UK).

Lys^65Ala hFFA2 [3] = target: T2, Lys^65Ala hFFA2 (Homo sapiens, UniProt O15552, K65A); assay: inositol monophosphate accumulation assay, Lys65Ala hFFA2; assay type: cell-based; parameters: NanoLuc Luciferase (N); eYFP; expressed in transfected cells; host or cells: Flp-In T-REx HEK293, doxycycline-induced
T2 sequence (O15552 1-330 K65A): T1 sequence (O15552 1-330 K65R) with R65A
Procedure: as §1

hFFA2 [4] = target: T3, hFFA2 (Homo sapiens, UniProt O15552); assay: inositol monophosphate accumulation assay, wild type hFFA2; assay type: cell-based; parameters: expressed in transfected cells; details: against an EC80 concentration of compound 1, wild type hFFA2; read-out: pIC50 to inhibit inositol monophosphate response, WT (converted)
T3 sequence (O15552 1-330): T1 sequence (O15552 1-330 K65R) with R65K
Procedure: as §1

Lys^65Glu hFFA2 [5] = target: T4, Lys^65Glu hFFA2 (Homo sapiens, UniProt O15552, K65E); assay: inositol monophosphate accumulation assay, Lys65Glu hFFA2; assay type: cell-based
T4 construct: NanoLuc Luciferase (N); eYFP; expressed in transfected cells; host or cells: Flp-In T-REx HEK293, doxycycline-induced
T4 sequence (O15552 1-330 K65E): T1 sequence (O15552 1-330 K65R) with R65E
Procedure: as §1

Arg^65Lys mFFA2 = target: T5, Arg^65Lys mFFA2 (Mus musculus, UniProt Q8VCK6, R65K); assay: inositol monophosphate accumulation assay, Arg65Lys mFFA2; assay type: cell-based; details: concentration-dependent
T5 construct: eYFP; expressed in transfected cells
T5 sequence (Q8VCK6 1-330 R65K): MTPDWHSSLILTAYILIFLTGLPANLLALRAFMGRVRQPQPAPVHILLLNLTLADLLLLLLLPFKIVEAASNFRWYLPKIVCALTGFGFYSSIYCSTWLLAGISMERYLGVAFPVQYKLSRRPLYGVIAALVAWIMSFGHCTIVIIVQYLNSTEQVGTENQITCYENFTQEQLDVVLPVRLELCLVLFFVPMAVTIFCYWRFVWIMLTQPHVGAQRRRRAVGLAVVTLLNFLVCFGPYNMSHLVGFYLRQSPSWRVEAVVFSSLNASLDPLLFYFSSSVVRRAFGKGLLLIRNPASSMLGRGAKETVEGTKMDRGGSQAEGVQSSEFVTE
Procedure: as §1

mFFA2 = target: T6, mFFA2 (Mus musculus, UniProt Q8VCK6); assay: inositol monophosphate accumulation assay, mFFA2; assay type: cell-based; details: EC80 concentration of C3, wild type mFFA2
T6 construct: eYFP; expressed in transfected cells; host or cells: Flp-In T-REx HEK293, doxycycline-induced
T6 sequence (Q8VCK6 1-330): T5 sequence (Q8VCK6 1-330 R65K) with K65R
Procedure: as §1

bovine FFA2 = tested on: bovine FFA2; parameters: method as in Hudson et al., unpublished; details: bovine FFA2 has Lys at residue 65; ref Hudson et al., unpublished; cited from earlier work
Lys^65Ala hFFA2 [6] = target: T2, Lys^65Ala hFFA2; assay: bias factor β calculation, Lys65Ala hFFA2 compared to WT; assay type: cell-based; parameters: NanoLuc Luciferase (N); eYFP; expressed in transfected cells; host or cells: Flp-In T-REx HEK293, doxycycline-induced; details: Pathway 2 TGFα shedding
Procedure: (§2) All data are presented as means ± SEM of at least three independent experiments. Data analysis and curve fitting was carried out using the GraphPad Prism software package version 5.0b (GraphPad, San Diego). […] In case of inhibition experiments with antagonists an equivalent analysis was followed to fit an inverse sigmoidal curve. To perform the statistical analysis of curve parameters, data from multiple experiments were fitted independently and resulting curve fit values were analysed with indicated tests. For radioligand binding data, saturation binding curves were generated by fitting the specific binding, which was obtained by subtracting non-specific from total binding, to a one site specific binding model that allows calculation of Kd values for the radioligand at wild type and mutant receptors. To determine affinity of unlabelled ligands, data obtained in displacement assays were fit to an inverse three parameter sigmoidal curve constrained by radioligand affinity and concentration to allow for Ki calculation. To quantify the signaling bias that mutations of hFFA2 show compared to the wild type receptor, bias factor β was calculated by determining the logarithm of the ratio of relative intrinsic activities for a ligand at two different assays[43].

Lys^65Glu hFFA2 [7] = target: T4, Lys^65Glu hFFA2; assay: HTRF cAMP inhibition assay, Lys65Glu hFFA2; assay type: cell-based; details: compared to wild type hFFA2
Procedure: as §1

Lys^65Ala hFFA2 [8] = target: T2, Lys^65Ala hFFA2; details: compared with loss of potency in inositol monophosphate assays
Procedure: Membranes were generated from Flp-In T-REx HEK293 cells treated with 100 ng/mL doxycycline to induce expression of receptor of interest. Cells were washed with ice-cold phosphate-buffered saline, removed from dishes by scraping and centrifuged at 3000 rpm for 5 min at 4 °C. Pellets were resuspended in TE buffer (75 mM Tris-HCl, 5 mM EDTA; pH 7.5) containing a protease inhibitor mixture (Roche Applied Science, West Sussex, UK) and homogenized with a 5 ml hand-held homogenizer. This material was centrifuged at 1500 rpm for 5 min at 4 °C and the supernatant was further centrifuged at 50000 rpm for 30 min at 4 °C. The resulting pellet was resuspended in TE buffer and protein content was assessed using a BCA protein assay kit (Pierce, Fisher Scientific, Loughborough, UK).
Binding was initiated by the addition of membranes (5 µg of protein per tube). […] Radioactivity was quantified by liquid scintillation spectrometry.
All data are presented as means ± SEM of at least three independent experiments. […] To perform the statistical analysis of curve parameters, data from multiple experiments were fitted independently and resulting curve fit values were analysed with indicated tests. […]

[9] = tested on: Lys^65 to either Ala or Glu in hFFA2; assay: degree of bias to favor Gi-mediated signalling, Lys65 to either Ala or Glu in hFFA2; assay type: cell-based, human; details: vs TGFα shedding
Procedure: as §2

hFFA2 [10] = target: T3, hFFA2; assay: TGFα shedding assay, wild type hFFA2; assay type: cell-based; parameters: HA-tag (C); expressed in transfected cells; host or cells: HEK293, parental and CRISPR/Cas9 G protein-deleted lines, transient transfection
Procedure: A mixture of 250 ng AP-TGFα, 100 ng receptor of interest and 50 ng Gα protein were transfected using polyethyleneimine into one well of HEK293 cells cultured in a 12-well plate. Transfected cells were detached with PBS containing 0.05% trypsin and 0.52 mM EDTA and harvested by centrifugation at 190 × g for 5 min. The cell pellet was resuspended in PBS, followed by an incubation for 15 min at room temperature. After a second centrifugation at 190 × g for 5 min, pelleted cells were resuspended in 4 ml Hank’s Balanced Salt Solution (HBSS) containing 5 mM HEPES (pH7.4) per well in a 12-well plate. The cell suspensions were plated at 90 μl per well in a 96-well plate and incubated at 37 °C with 5% CO2 for 30 minutes. After the equilibration period 10 μl per well of 10× concentration of compounds were added and incubated for 1 h at 37 °C with 5% CO2. Plates were centrifuged at 190 × g for 2 min and 80 μL of supernatant was transferred into another 96-well plate. Solution containing p-NPP (10 mM p-NPP, 40 mM Tris-HCl (pH 9.5), 40 mM NaCl, 10 mM MgCl2) was added at 80 μl per well into supernatant-only plates as well as cell plates. […] Detailed assay development and analysis has been described previously.

Lys^65Ala hFFA2 [11] = target: T2, Lys^65Ala hFFA2; assay: HTRF cAMP inhibition assay, Lys65Ala hFFA2; assay type: cell-based; parameters: NanoLuc Luciferase (N); eYFP; expressed in transfected cells; host or cells: Flp-In T-REx HEK293, doxycycline-induced; details: compared to wild type hFFA2
Procedure: as §1

Lys^65Glu hFFA2 [12] = target: T4, Lys^65Glu hFFA2; assay: bias factor β calculation, Lys65Glu hFFA2 compared to WT; assay type: cell-based; details: Pathway 2 TGFα shedding
Procedure: as §2

Lys^65Arg hFFA2 [13] = target: T1, Lys^65Arg hFFA2; assay: bias factor β calculation, Lys65Arg hFFA2 compared to WT; assay type: cell-based; details: Pathway 2 TGFα shedding
Procedure: as §2

human neutrophils = details: cited from earlier work

O=C(O)C[C@H](Cc1ccc(C(F)(F)F)cc1)NC(=O)Cc1cccc(Cl)c1 [CATPB, (S)-3-(2-(3-chlorophenyl)acetamido)-4-(4-(trifluoromethyl)phenyl)butanoic acid]
antagonism of C3 at Lys65Arg hFFA2 (Lys^65Arg hFFA2 [1]): effective and competitive antagonist
ability to block compound 1-mediated elevation of inositol monophosphate accumulation at Lys65Arg hFFA2 (Lys^65Arg hFFA2 [2]; EC80 concentration of compound 1): all but abolished
IC50 (Lys^65Arg hFFA2 [2]; against an EC80 concentration of compound 1, K65R hFFA2, read-out: pIC50 to inhibit inositol monophosphate response, K65R (converted)): > 31600 nM
IC50 (Lys^65Ala hFFA2 [3]; against an EC80 concentration of compound 1, K65A hFFA2, read-out: pIC50 to inhibit inositol monophosphate response, K65A (converted)): 437 nM
IC50 (hFFA2 [4]): 19.1 nM
IC50 (Lys^65Glu hFFA2 [5]; against an EC80 concentration of compound 1, K65E hFFA2, read-out: pIC50 to inhibit inositol monophosphate response, K65E (converted)): > 31600 nM
antagonism of C3-mediated inositol monophosphate accumulation at Arg65Lys mFFA2 (Arg^65Lys mFFA2): fully antagonize
effect on C3-stimulated inositol monophosphate production at mFFA2 (mFFA2): unaffected
binding to bovine FFA2 (bovine FFA2): does not bind CAPTB with high affinity

CCC(=O)O [Compound C3, propionate]
loss of agonist potency at Lys65Ala hFFA2 vs wild type, inositol monophosphate accumulation (Lys^65Ala hFFA2 [3]; Ala substitution): greater than 30 fold
β factor (compared to WT) K65A (Lys^65Ala hFFA2 [6]; Pathway 1 GTPγS): 1.78
β factor (compared to WT) K65A (Lys^65Ala hFFA2 [6]; Pathway 1 cAMP): 2.00
maximal effect in cAMP inhibition at Lys65Glu hFFA2 (Lys^65Glu hFFA2 [7]): greater than at wild type hFFA2
ability to compete for binding with [3H]GLPG0974 at Lys65Ala hFFA2 (Lys^65Ala hFFA2 [8]): much less affected
bias to favor Gi-mediated signalling compared to wild type hFFA2, based on [35S]GTPγS binding studies [9]: 41–60 fold
bias to favor Gi-mediated signalling compared to wild type hFFA2, based on cAMP inhibition studies [9]: 100–125 fold
potency in TGFα shedding assay (parental HEK293) higher than in inositol monophosphate accumulation assay (hFFA2 [10]; wild type hFFA2): ~10 fold
TGFα shedding response in HEK293 cells lacking Gαq, Gα11, Gα12, Gα13 (hFFA2 [10]; wild type hFFA2, all four G protein α subunits eliminated): no TGFα shedding response
maximal effect in cAMP inhibition at Lys65Ala hFFA2 (Lys^65Ala hFFA2 [11]): greater than at wild type hFFA2
loss of agonist potency at Lys65Glu hFFA2 vs wild type, inositol monophosphate accumulation (Lys^65Glu hFFA2 [5]; Glu substitution): greater than 30 fold
β factor (compared to WT) K65E (Lys^65Glu hFFA2 [12]; Pathway 1 GTPγS): 1.62
β factor (compared to WT) K65E (Lys^65Glu hFFA2 [12]; Pathway 1 cAMP): 2.10
β factor (compared to WT) K65R (Lys^65Arg hFFA2 [13]; Pathway 1 GTPγS): −0.10
β factor (compared to WT) K65R (Lys^65Arg hFFA2 [13]; Pathway 1 cAMP): −0.30

CC1(C(=O)N(CCCC(=O)O)Cc2cccc(Cl)c2)CCN1C(=O)c1csc2ccccc12 (stereo not shown) [GLPG0974, 4-[[1-(benzo[b]thiophene-3-carbonyl)-2-methylazetidine-2-carbonyl]-(3-chlorobenzyl)amino]butyric acid]
block of chemotaxis of human neutrophils (human neutrophils): effectively blocked chemotaxis of human neutrophils
